The test system of test [1] is HCC15 cells. As to the kind of experiment: Cell viability of KIF18a-sensitive cell lines, HCC15 (Cell Titre-Glo, 7 days). Type of test: cell-based. The conditions noted are these: HCC15, 168 h; HCC-15 cells, 7 days, Cell Titre-Glo; read-out: HCC-15 IC50. The method in brief: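 Seeding was 24 h before dosing: HCC15 at 600 cells/well in RPMI-1640/10% FBS, OVCAR-3 at 1000 cells/well in RPMI-1640/20% FBS plus insulin, JIMT-1 at 1000 cells/well in DMEM/10% FBS. After serially diluted compound, cells grew 7 days at 37° C. Cell Titre-Glo luminescence was converted to ATP; IC50 came from a four-parameter fit.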

Test [2] deals with OVCAR-3 tumor cells implanted in Balb/C nude mice. As to the kind of experiment: In vivo activity, OVCAR-3 tumor xenograft, tumor growth inhibition. Set-up: species or system mouse. The conditions noted are these: OVCAR3 model. Here is the method: (§1) Assessment of In Vivo Activity
(§2) OVCAR-3 (ATCC) tumor cells were maintained in vitro in RPMI-1640 medium supplemented with 20% fetal bovine serum, 0.01 mg/mL bovine insulin and 1% Anti-Anti at 37° C. in an atmosphere of 5% CO2 in air. HCC15 (DSMZ) tumor cells were maintained in vitro in RPMI 1640 medium supplemented with 10% fetal bovine serum and 1% Anti-Anti at 37° C. in an atmosphere of 5% CO2 in air.
(§3) The tumor cells were sub-cultured twice weekly. The cells growing in an exponential growth phase were harvested and counted for tumor inoculation.
(§4) Tumor cells (10×10^6) in 0.2 mL of PBS mixed with Matrigel (50:50) were inoculated subcutaneously on the right flank of each mouse. When the average tumor volume reached 110-175 mm^3, animals were randomized into groups of 10 and treatment started. OVCAR-3 cells were implanted in Balb/C nude mice, and HCC15 cell were implanted in SCID Beige mice.
(§5) Compounds were dosed once or twice a day (12 h) orally. Tumor Growth Inhibition (TGI) was calculated using the formula: TGI (%)=[1−(TN−T0)/(VN−V0)]×100; TN is the average tumor volume of a treatment group at the indicated timepoint, T0 is the average tumor volume of the treatment group on treatment day 0, VN is the average tumor volume of the vehicle control group at the indicated timepoint, and V0 is the average tumor volume of the vehicle group on treatment day 0. P value was calculated based on tumor size by One-Way ANOVA with GraphPad Prism 9.4.0 compared with the vehicle group, respectively. **** indicates p<0.0001.
(§6) The tumor volume of vehicle- and compound-treated mice as a function of time after start of treatment and the results of treatments with selected compounds on SCID Beige mice or nude mice implanted with HCC15 or OVCAR-3 are shown in FIGS. 1A-1E.

Test [3] deals with HCC15 tumor cells implanted in SCID Beige mice. The test is described as follows: In vivo activity, HCC15 tumor xenograft, tumor growth inhibition. On the set-up: species or system mouse. Particulars: HCC15 model. Here is the method: as §1, §2, §3, §4, §5, §6
Test [4] has as its system JIMT-1 cells. The test is described as follows: Cell viability of KIF18a-sensitive cell lines, JIMT-1 (Cell Titre-Glo, 7 days). It is filed as cell-based. Particulars: Homo sapiens, 168 h; JIMT-1 cells, 7 days, Cell Titre-Glo; read-out: JIMT-1 IC50. On the procedure: (§7) Cell Viability of KIF18a-Sensitive Cell Lines
(§8) Cell lines were seeded as follows 24 hours before compound treatment: HCC15 (Korean Cell Line Bank) 600 cell/well, 95 μL of RPMI-1640 media supplemented with 100 units/mL penicillin, 100 units/mL streptomycin and 10% FBS; NIH:OVCAR-3 (ATCC), 1000 cell/well, 95 μL of RPMI-1640 media supplemented with 100 units/mL penicillin, 100 units/mL streptomycin, 0.01 mg/mL bovine insulin, and 20% FBS; JIMT-1 (Addexbio) 1000 cell/well, 95 μL of DMEM media supplemented with 100 units/mL penicillin, 100 units/mL streptomycin, and 10% FBS.
(§9) Test compounds were added to cells in a 20× dilution scheme by adding 5 μL of serially diluted compound to the plate, and the treated cells were incubated for an additional 7 days in a 37° C., 5% CO2 incubator. DMSO was used as the negative control (0% effect), and wells omitting cells were used as the positive control (100% effect). The cells were incubated for seven days, and cell viability determined via the Promega Cell Titre-Glo® Assay kit. Luminescence units were converted to ATP concentrations via an ATP standard curve (10 point, 2-fold dilution from 5 uM). % Inhibition was calculated for each well as: ([max−min]−[test−min])/[max−min]. IC50 values were calculated from concentration vs. % Inhibition data via a four-parameter variable slope model.

Test [5] concerns the target hKIF18A (1-374) (Homo sapiens (Human), UniProt Q8NI77). The test is described as follows: Inhibition of KIF18A microtubule-dependent ATPase activity (ADP-Glo). For orientation: ADP-Glo turns the ADP formed in a reaction into a luminescent signal.
Test [6] concerns the target KIF18a-Microtubule Complex (Homo sapiens (Human), UniProt Q8NI77). As to the kind of experiment: Binding kinetics to KIF18a-microtubule complex (global progress curve analysis). Particulars: for kon (on-rate from binding kinetics assay): global progress curve analysis; for Ki: read-out: KI (determined from binding kinetic assay koff/kon), koff/kon; for koff: read-out: koff (off-rate from binding kinetics assay). A digest of the protocol:
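kon and koff determined by global progress curve analysis, with ADP formation measured by ADP-Glo. Time- and dose-dependent progress curves were globally fitted to a Michaelis-Menten model with one-step slow-binding inhibition.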

Test [7] relates to NIH:OVCAR-3 cells. As to the kind of experiment: Cell viability of KIF18a-sensitive cell lines, NIH:OVCAR-3 (Cell Titre-Glo, 7 days). Type of test: cell-based. The conditions noted are these: Homo sapiens, OVCAR-3, 168 h; NIH-OVCAR3 cells, 7 days, Cell Titre-Glo; read-out: NIH-OVCAR3 IC50. Here is the method:
as §7, §8, §9

Where [8] appears, read: KIF18A microtubule-dependent ATPase activity, biochemical assay.

Read-outs that look alike come from different tables or passages of the source.

hKIF18A (1-374), sequence (Q8NI77 whole entry, looked up): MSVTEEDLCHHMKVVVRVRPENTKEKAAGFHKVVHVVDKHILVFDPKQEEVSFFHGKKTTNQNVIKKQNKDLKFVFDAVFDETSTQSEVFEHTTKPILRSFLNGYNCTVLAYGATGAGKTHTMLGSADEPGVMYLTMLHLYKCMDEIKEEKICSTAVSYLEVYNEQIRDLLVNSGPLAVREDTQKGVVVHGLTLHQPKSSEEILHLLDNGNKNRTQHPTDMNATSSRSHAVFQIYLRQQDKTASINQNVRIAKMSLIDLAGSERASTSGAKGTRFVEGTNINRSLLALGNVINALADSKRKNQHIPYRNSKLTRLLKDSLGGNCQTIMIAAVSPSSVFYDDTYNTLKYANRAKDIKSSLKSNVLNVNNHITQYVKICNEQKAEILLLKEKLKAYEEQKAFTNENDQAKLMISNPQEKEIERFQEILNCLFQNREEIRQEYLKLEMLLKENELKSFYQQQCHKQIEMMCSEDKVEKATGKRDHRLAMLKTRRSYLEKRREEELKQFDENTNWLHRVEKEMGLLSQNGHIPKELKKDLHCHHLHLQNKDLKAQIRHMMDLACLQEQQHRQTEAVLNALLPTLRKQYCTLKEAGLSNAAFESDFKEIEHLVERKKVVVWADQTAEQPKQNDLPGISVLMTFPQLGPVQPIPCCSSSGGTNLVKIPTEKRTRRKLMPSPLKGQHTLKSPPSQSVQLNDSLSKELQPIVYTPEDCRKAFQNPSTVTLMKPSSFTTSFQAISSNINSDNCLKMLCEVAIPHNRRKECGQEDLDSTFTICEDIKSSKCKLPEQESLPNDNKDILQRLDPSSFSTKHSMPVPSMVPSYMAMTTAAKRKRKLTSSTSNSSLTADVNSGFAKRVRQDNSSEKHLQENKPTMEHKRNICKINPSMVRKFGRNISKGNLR
hKIF18A (1-374), sequence (Q2XVP4 whole entry partner, looked up): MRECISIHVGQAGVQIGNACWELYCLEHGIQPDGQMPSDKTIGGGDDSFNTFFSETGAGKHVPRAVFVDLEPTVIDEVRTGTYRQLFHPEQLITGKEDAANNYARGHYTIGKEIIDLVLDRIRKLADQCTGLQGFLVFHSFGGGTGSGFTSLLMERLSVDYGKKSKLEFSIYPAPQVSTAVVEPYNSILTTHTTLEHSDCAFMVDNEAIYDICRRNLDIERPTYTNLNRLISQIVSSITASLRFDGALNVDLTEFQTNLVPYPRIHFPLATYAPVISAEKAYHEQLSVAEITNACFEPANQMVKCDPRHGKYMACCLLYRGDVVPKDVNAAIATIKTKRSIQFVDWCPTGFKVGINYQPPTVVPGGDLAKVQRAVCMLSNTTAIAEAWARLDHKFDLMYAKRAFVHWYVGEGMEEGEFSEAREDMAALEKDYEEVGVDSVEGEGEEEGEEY
hKIF18A (1-374), sequence (P02554 whole entry partner, looked up): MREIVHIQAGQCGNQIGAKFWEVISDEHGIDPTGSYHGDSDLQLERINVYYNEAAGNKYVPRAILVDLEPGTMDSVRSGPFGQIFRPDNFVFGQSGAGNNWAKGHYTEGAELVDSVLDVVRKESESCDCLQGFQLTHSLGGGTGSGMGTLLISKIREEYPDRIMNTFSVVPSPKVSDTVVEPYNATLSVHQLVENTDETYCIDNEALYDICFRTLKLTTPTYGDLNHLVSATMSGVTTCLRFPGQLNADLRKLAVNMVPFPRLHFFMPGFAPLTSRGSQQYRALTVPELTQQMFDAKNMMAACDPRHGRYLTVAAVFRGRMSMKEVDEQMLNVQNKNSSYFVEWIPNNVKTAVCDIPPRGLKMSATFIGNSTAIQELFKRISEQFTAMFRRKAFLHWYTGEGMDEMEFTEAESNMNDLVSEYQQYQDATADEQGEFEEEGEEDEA
KIF18a-Microtubule Complex, sequence (Q8NI77 whole entry, looked up): as the sequence (Q8NI77 whole entry, looked up) above
KIF18a-Microtubule Complex, sequence (Q2XVP4 whole entry partner, looked up): as the sequence (Q2XVP4 whole entry partner, looked up) above
KIF18a-Microtubule Complex, sequence (P02554 whole entry partner, looked up): as the sequence (P02554 whole entry partner, looked up) above

On to `CC(C)(C)NS(=O)(=O)c1cccc(C(=O)N2CC3(CCC4(CC4)CC3)c3cc(NS(C)(=O)=O)ccc32)c1` [Compound 22, N-(tert-butyl)-3-(5″- (methylsulfonamido)dispiro[cyclo-propane-1,1′-cyclohexane-4′,3″-indoline]-1″-carbonyl)benzenesulfonamide], for which the concentration for half-maximal inhibition (IC50) in test [1] turned out to be 11 nM; in test [4], 7.8 nM; in test [5] it was 9.4 nM; in test [5] (setting [8]), 11 nM; in test [7], 9.7 nM. Moreover, the TGI in test [2] (10 mg/kg QD PO) is listed as 24 ± 26%; in test [2] (30 mg/kg QD PO), 72 ± 17%; in test [2] (60 mg/kg QD PO), 82 ± 10%; in test [3] (10 mg/kg BID PO), 30 ± 15%; in test [3] (30 mg/kg BID PO), 72 ± 6%; in test [3] (60 mg/kg BID PO), 82 ± 9%. Moreover, the “kon (on-rate from binding kinetics assay)” value in test [6] is 10600 M⁻¹ s⁻¹. For the same compound, in test [6], the “disc. t1/2 (dissociation half-life ln(2)/koff)” value turned out to be 38 h. Further, the Ki in test [6] was found to be 0.55 nM. Also, in test [6], the off-rate (koff) was 5e-06 s⁻¹.
For the compound `CCS(=O)(=O)Nc1ccc2c(c1)C1(CCC3(CC3)CC1)CN2C(=O)c1cccc(S(=O)(=O)NC(C)(C)C)c1` [Compound 134, N-(tert-butyl)-3-(5″-(ethylsulfonamido)dispiro[cyclopropane-1,1′-cyclohexane-4′,3″-indoline]-1″-carbonyl)benzenesulfonamide], the IC50 in test [1] is 5.1 nM; in test [4], 4 nM; in test [5] (setting [8]) it was 16 nM; in test [7], 5.1 nM. Moreover, the TGI is recorded as 60 ± 17% in test [2] (10 mg/kg BID PO); 111 ± 1% in test [2] (30 mg/kg BID PO, subfigure 1D); 110 ± 1% in test [2] (30 mg/kg BID PO, subfigure printed 1R); 104 ± 7% in test [2] (30 mg/kg QD PO); 112 ± 1% in test [2] (60 mg/kg BID PO); 109 ± 2% in test [2] (60 mg/kg QD PO). The TGI is 61 ± 10% in test [3] (10 mg/kg BID PO), 89 ± 7% in test [3] (30 mg/kg BID PO) and 94 ± 5% in test [3] (60 mg/kg BID PO). For the same compound, the “kon (on-rate from binding kinetics assay)” value in test [6] turned out to be 15000 M⁻¹ s⁻¹. Also, the “disc. t1/2 (dissociation half-life ln(2)/koff)” value in test [6] was 40 h. Moreover, in test [6], the Ki stood at 0.34 nM. The off-rate constant (koff) in test [6] was 5e-06 s⁻¹.

A word on the IC50: it is the concentration needed to halve the response being measured. In general, koff refers to a measure of how fast the partners let go of each other.

The record behind these values is patent publication US12084420B2, “Indoline compounds for inhibiting KIF18A” (Volastra Therapeutics, Inc., priority 2021, dated 2024).
